Test results published in article PMC8245078, “Development of novel benzofuran-isatin conjugates as potential antiproliferative agents with apoptosis inducing mechanism in Colon cancer” (Journal of Enzyme Inhibition and Medicinal Chemistry, 2021).
Like-named read-outs stand apart in the source and are kept apart here.

Experiments:
CCRF-CEM = type: cell-based; conditions: five-dose test
HCT-15 = type: cell-based; conditions: HCT-15, five-dose test
UACC-257 = type: cell-based; conditions: UACC-257, five-dose test
K-562 = type: cell-based; conditions: K-562, five-dose test
MOLT-4 = type: cell-based; conditions: MOLT-4, five-dose test
HOP-92 = type: cell-based, human; conditions: HOP-92, five-dose test
[1] = system: non-small cell lung cancer subpanel; type: cell-based, human
SK-MEL-5 = type: cell-based; conditions: Homo sapiens; SK-MEL-5, five-dose test
LOX IMVI = type: cell-based; conditions: five-dose test
Breast Cancer subpanel = type: cell-based, human
MDA-MB-231/ATCC = type: cell-based; conditions: five-dose test
SNB-19 = type: cell-based; conditions: SNB-19, five-dose test
KM12 = type: cell-based; conditions: KM12, five-dose test
NCI-H522 = type: cell-based; conditions: NCI-H522, five-dose test
RXF 393 = type: cell-based, human; conditions: RXF 393, five-dose test
ACHN = type: cell-based; conditions: Homo sapiens, five-dose test
[2] = system: Full panel of NCI cancer cell lines; type: cell-based
SR = type: cell-based; conditions: five-dose test
UACC-62 = type: cell-based; conditions: UACC-62, five-dose test
COLO 205 = type: cell-based; conditions: COLO 205, five-dose test
SN12C = type: cell-based; conditions: five-dose test
HCT-116 = type: cell-based; conditions: Homo sapiens; HCT-116, five-dose test
OVCAR-3 = type: cell-based; conditions: Homo sapiens; OVCAR-3, five-dose test
SNB-75 = type: cell-based; conditions: SNB-75, five-dose test
U251 = type: cell-based, human; conditions: U251, five-dose test
NCI-H23 = type: cell-based; conditions: NCI-H23, five-dose test
HT29 = type: cell-based; conditions: Homo sapiens, HT-29; HT29, five-dose test; read-out: LC50 (the source's name)
MCF7 = type: cell-based; conditions: MCF7, five-dose test
HCC-2998 = type: cell-based; conditions: HCC-2998, five-dose test
MALME-3M = type: cell-based, human; conditions: five-dose test
T-47D = type: cell-based; conditions: Homo sapiens, T47D, five-dose test
HL60(TB) = type: cell-based
A498 = type: cell-based, human; conditions: A498, five-dose test
[3] = Homo sapiens, read-out: LC50 (the source's name)

## COc1ccc2c(c1)/C(=N/NC(=O)c1oc3ccccc3c1C)C(=O)N2 [Compound 5d]
CCRF-CEM; [3]
  CC50: > 100 µM
CCRF-CEM
  TGI: >100 µM
HCT-15
  TGI: >100 µM
HCT-15; Homo sapiens
  LC50: > 100 µM
UACC-257; Homo sapiens
  LC50 (concentration killing 50% of cells): > 100 µM
UACC-257
  TGI: >100 µM
K-562; Homo sapiens, K562, read-out: LC50 (the source's name)
  CC50: > 100 µM
K-562
  TGI: >100 µM
MOLT-4; Homo sapiens
  LC50: > 100 µM
MOLT-4
  TGI: >100 µM
HOP-92
  TGI: 3.98 µM
HOP-92; Homo sapiens
  GI50: 1840 nM
[1]; Homo sapiens, non-small cell lung cancer subpanel, read-out: MG-MID (GI50 average of the subpanel)
  GI50: 2800 nM
[1]; full panel MID / subpanel MID, non-small cell lung cancer
  Selectivity index: 0.89
SK-MEL-5
  LC50 (50% lethal concentration): > 100 µM
LOX IMVI; Homo sapiens
  GI50: 3.16 µM
LOX IMVI; [3]
  CC50: > 100 µM
LOX IMVI
  TGI: >100 µM
Breast Cancer subpanel; Homo sapiens, Breast Cancer subpanel, read-out: MG-MID (GI50 average of the subpanel)
  GI50: 2830 nM
Breast Cancer subpanel; full panel MID / subpanel MID, Breast Cancer
  Selectivity index: 0.88
MDA-MB-231/ATCC; Homo sapiens
  GI50: 2070 nM
MDA-MB-231/ATCC; [3]
  CC50: > 100 µM
MDA-MB-231/ATCC
  TGI: 5.10 µM
SNB-19; Homo sapiens
  GI50: 3.45 µM
SNB-19; [3]
  CC50: > 100 µM
SNB-19
  TGI: 16.2 µM
KM12; [3]
  CC50: > 100 µM
KM12
  TGI: >100 µM
NCI-H522; Homo sapiens
  GI50: 6.07 µM
  LC50 (concentration killing 50% of cells): > 100 µM
NCI-H522
  TGI: >100 µM
RXF 393; Homo sapiens
  GI50: 1790 nM
RXF 393
  TGI: 3.70 µM
ACHN
  GI50: 1770 nM
[2]; Homo sapiens, all cancer cell lines examined except HOP-62, SNB-75 and SK-MEL-2
  LC50: > 100 µM
[2]; Homo sapiens, all examined cancer cell subpanels except HL60(TB), read-out: GI50 values range
  GI50: 1250 to 6070 nM
[2]; Homo sapiens, average sensitivity for all cell lines, read-out: Full panel MG-MID (GI50)
  GI50: 2510 nM
[2]; all tested subpanels
  selectivity index range over subpanels: 0.78 to 1.30
[2]; entire Leukaemia, Colon cancer and Prostate Cancer and the remaining examined cancer cell lines
  TGI: more than 100 µM
SR; [3]
  CC50: > 100 µM
SR
  TGI: >100 µM
UACC-62; Homo sapiens
  GI50: 5.19 µM
UACC-62; [3]
  CC50: > 100 µM
UACC-62
  TGI: >100 µM
COLO 205
  TGI: >100 µM
COLO 205; Homo sapiens
  LC50 (concentration killing 50% of cells): > 100 µM
SN12C; Homo sapiens
  GI50: 2820 nM
SN12C; [3]
  CC50: > 100 µM
SN12C
  TGI: >100 µM
HCT-116
  GI50: 1920 nM
OVCAR-3
  GI50: 1840 nM
SNB-75; Homo sapiens
  GI50: 1250 nM
SNB-75; [3]
  CC50: 6.04 µM
SNB-75
  TGI: 2.75 µM
MDA-MB-468; Homo sapiens, MDA-MB-468
  GI50: 2600 nM
MDA-MB-468; Homo sapiens, MDA-MB-468, read-out: LC50
  CC50: > 100 µM
MDA-MB-468; MDA-MB-468, five-dose test
  TGI: 6.52 µM
U251; Homo sapiens, U-251
  GI50: 2030 nM
U251
  TGI: 4.26 µM
NCI-H23; Homo sapiens
  GI50: 1860 nM
  LC50: > 100 µM
NCI-H23
  TGI: 4.43 µM
HT29
  CC50: > 100 µM
MCF7; [3]
  CC50: > 100 µM
MCF7
  TGI: >100 µM
HCC-2998
  TGI: >100 µM
HCC-2998; [3]
  CC50: > 100 µM
MALME-3M; Homo sapiens
  GI50: 1810 nM
MALME-3M
  TGI: 3.79 µM
T-47D
  GI50: 1700 nM
  LC50: > 100 µM
HL60(TB); Homo sapiens, HL-60, five-dose test
  GI50: > 100 µM
HL60(TB); Homo sapiens, HL-60, five-dose test, read-out: LC50 (the source's name)
  CC50: > 100 µM
HL60(TB); five-dose test
  TGI: >100 µM
A498
  TGI: 4.04 µM
A498; Homo sapiens
  GI50: 1630 nM
